No end group written: not given here.
How the values were obtained:
[1] = test system: dopamine release in the nucleus accumbens (NAc); test: Dopamine release in the NAc (dLight1.3b fiber photometry) during high-salt consumption; type: in vivo, mice
Method: Dopamine measurement: Mice were freely moving in the chamber with gustometer. Bulk fluorescence signals were collected with a fiber photometry setting as described with the light of 405 nm and 490 nm. The ΔF/F was calculated as (raw 490-nm signal−fitted 405-nm signal)/(fitted 405-nm signal). Mice were induced with osmotic thirst 10-15 min, or sodium depletion 24 hr before the access of 500 mM NaCl. For wild-type mice, under PGE2 activation condition, mice were injected PGE2 at a dose of 1 mg per kg BW subcutaneously 1 hr before the shutter open. For Ptger3cre mice, mice were injected with either CNO or vehicle 20 min before the shutter opened. Lick number was recorded simultaneously with the fluorescence signal collection. The first lick bout was identified with the lick rate more than 3.5 and lick number more than 5, with less than 1-sec interval to the subsequent lick. If no lick bout was detectable (observed with osmotic thirst), any first lick event was included into the data. All baseline signals were calculated by averaging signals between 10-20 sec prior to the first lick. Response amplitude (normalized ΔF/F) was calculated by subtracting the baseline ΔF/F from the mean ΔF/F between 0 and 10 sec after the lick initiated.

[2] = test system: SFO/OVLT^Ptger3 neurons; test: Chemogenetic inhibition (AAV-DIO-hM4Di + CNO) of LT^Ptger3 neurons, 30-min consumption assay; type: in vivo, mice
Method: Surgery procedures were performed according to methods known in the art. Briefly, ketamine (1 mg/ml) and xylazine (10 mg/ml) in saline were injected intraperitoneally at a dose of 10 ml per kg body weight (BW) for anaesthesia. Ketoprofen was injected subcutaneously at a dose of 5 ml per kg BW. Surgery was performed with a stereotaxic apparatus (Narishige, SR-5M-HT) on a heating pad at 37° C. Virus was delivered with a microprocessor-controlled injection system (World Precision Instruments, Nanolitre 2000) at 100 nl/min. The following coordinates were used: for pre-LC: anterior-posterior (AP), 9,000, medial-lateral (ML), 1,000, ventral-dorsal (VD), 3,800; for SFO: AP, 4,000, ML, 0, VD, 2,500; for OVLT: AP, 2,475, ML, 0, VD, 4,750; for dorsal part of the NAc medial shell: AP, 2,100, ML, 700, VD, 4,000. For optogenetic experiments, virus was delivered unilaterally at a volume of 120-200 nl. Implants were made by gluing a 200-μm fibre bundle (Thorlabs, FT200EMT) to a ceramic ferrule (Thorlabs, CF230-10) with epoxy. The fibre implant was placed 200 μm above the virus injection site. For fiber photometry experiments, virus was delivered at a volume of 150-200 nl (calcium measurement) or 500 nl (dopamine measurement) per region. A 400-μm fiber bundle (Thorlabs, FT400UMT) was used instead. For chemogenetic inhibition experiments, virus was delivered at 180-200 nl per region. For ablation experiments, virus was delivered at 200-250 nl per region. For local knockdown experiments, virus was delivered at 150-200 nl per region. At the end of experiments, all animals were euthanized for histological examination.
For 30-min access assay, mice were presented with 1 bottle for 30 min and consumption was measured.
For chemogenetic experiments, clozapine N-oxide (CNO) was administered intraperitoneally at doses of 10 mg per kg BW for inhibition or 1 mg per kg BW for activation 20 min before the consumption trial started. Pure water instead of saline was used as vehicle to avoid sodium repletion.

[3] = test system: SFO^Ptger3 neurons; test: Fiber photometry calcium recording from SFO^Ptger3 neurons (GCaMP7s); type: in vivo, mice; conditions: for calcium response of SFO^Ptger3 neurons to control stimuli (normalized ΔF/F): i.p., mannitol 2 M, 10 ml per kg BW, ghrelin 10 μg, LiCl 0.15 M, 15 ml per kg BW
Method: Calcium measurement from SFO^Ptger3 neurons: Mice were headfixed to eliminate the interference from movement. Photometry recording was performed using a commercial photometry system (Neurophotometrics, FP3002). Two LED of different wavelength (470 nm and 415 nm) were bandpass filtered and a patch cord (0.48 NA, Doric lenses) was attached to the photometry system via a 20× objective. The sampling rate was fixed at 40 Hz. Data were acquired with Bonsai (Neurophotometrics) by drawing a region of interest and calculating the mean pixel value, and then were exported to MATLAB for further analysis. The isosbestic signal (415 nm) was fit with a biexponential model and was then linearly scaled to the calcium signal (470 nm). The ΔF/F was calculated as (raw 470-nm signal−fitted 415-nm signal)/(fitted 415-nm signal). For all sessions, stimulus time was recorded through a customized TTL button. During PGE2 activation experiment (FIG. 7C), mice were given PGE2 at a dose of 1 mg per kg BW or DMSO in 100 μl PBS subcutaneously. During other internal-state treatments, mice were exposed to the following stimuli via intraperitoneal injection: 2M mannitol (10 ml per kg BW); […] of ghrelin (in 100 μl PBS), and 0.15M LiCl (15 ml per kg BW). All analysis used the average of 5 min prior to the stimulus as a baseline mean. Normalized ΔF/F was calculated by subtracting the baseline ΔF/F from the mean ΔF/F between 100 and 1500 sec after the stimulus.

[4] = test system: SFO; test: Fos immunofluorescence after subcutaneous PGE2 injection; type: in vivo, mice
Method: PGE2-induced behavior: PGE2 was injected subcutaneously at a dose of 1 mg per kg BW. Animals had no food or water for 15-90 min before behavioral experiments. For immunohistochemistry, PGE2 was injected at a dose of 3 mg per kg BW and maintained with no food or water for 60 min before euthanasia.
Mice were euthanized with CO2 and perfused with PBS and 4% paraformaldehyde. Extracted mouse brains were fixed overnight at 4° C. in 4% PFA and sectioned coronally to 100-μm slides via vibratome (Leica, VT-1000 S). The sections were blocked (10% donkey serum, 0.2% Triton X-100 in PBS) for 1 hr at room temperature and incubated with primary antibody at 4° C. overnight. The following primary antibodies were used: rabbit anti-FOS (1:500), sheep anti-Foxp2 (1:2,000), chicken anti-GFP (1:3,000), rat anti-mCherry (1:500), and goat anti-nNos (1:500). The sections were washed three times with PBS and incubated with the secondary antibody (1:500; Jackson Immunoresearch) and DAPI ([…]) for 4 hr under room temperature. After three times wash with PBS, the sections were mounted on the glass slide. All slides were imaged with confocal microscope (Leica, TCS SP8) or slide scanner (Olympus, BX61VS).

[5] = test system: Ptger3; test: PGE2-induced behavior: high-salt consumption / aversive taste tolerance (gustometer lick assay); type: in vivo, mice
Method: Prostaglandin: PGE2 powder was diluted in DMSO at 50 mg/ml as stock. For behavioral assay, we used the final concentration of 1 mg per kg BW in PBS containing 1.7% DMSO (v/v). The same vehicle with DMSO was used as control.
All assays were performed in a custom gustometer (Dialog Instruments). All animals were at least trained with osmotic thirst and sodium depletion prior to the behavior trials. Animals were trained to drink at least 200 licks for 500 mM NaCl in 30 min under sodium depletion. Generally, two training sessions with sodium depletion are sufficient to achieve this criterion. […] To prevent this, all tastants at lower concentrations were exposed to animals before experiment. For tolerance tests, one-bottle consumption assay was used in order to avoid preference development during the session.

[6] = test system: pre-LC^Pdyn neurons; test: High-salt licks during pre-LC^Pdyn photostimulation with or without amiloride; type: in vivo, mice
Method: (§1) For 5-sec brief access assay, mice were presented with 1 bottle of solution for 30 sec per trial for maximum waiting time before the first lick, and 40 sec between trials. After an initial lick, animals were allowed to drink the solution for additional 5 sec before a shutter closed. To avoid taste conditioning effect, animals were tested with only one solution per day. After testing aversive solutions, bitter and high salt, animals sometimes refused to drink any solution. These animals were retrained with water and low salt until their behavioral level recovers to our criteria stated above.
(§2) For optogenetic activation, 473-nm laser-pulse sequences were delivered via an optic cable (Doric Lenses, MFP—FC-ZF) with pulse generators (World Precision Instruments, SYS-A310 or Quantum composers, Sapphire 9200). The laser intensity was maintained at 10 mW at the tip of the fiber. […] For 5-sec brief access assay, the light stimulation was given at 20 Hz throughout the trial except the paradigm in FIG. 3C.

[7] = test system: SFO^Ptger3 neurons; test: Salt tolerance induced by SFO^Ptger3 photostimulation with or without amiloride; type: in vivo, mice
Method: as §1, §2

[8] = test system: prostaglandin production; test: NSAIDs-induced loss-of-tolerance (lick number, 30 min); type: in vivo, mice; conditions: sodium depletion; ibuprofen 1 mg per ml drinking water three days plus aspirin 40 mg per kg BW i.p., given together
Method: NSAIDs-induced loss-of-tolerance: NSAIDs were used to suppress PGE2 production. Mice were given water supplemented with ibuprofen (1 mg per ml) for three days. On the second day, mice were injected with furosemide to induce sodium depletion. On the third day, aspirin (40 mg per kg BW) was injected intraperitoneally 1-2 hr prior to the lick access. Lick number was recorded for 30 min.

[9] = test system: mice; conditions: thirst; formalin in dorsal hindpaw
Method: Formalin-induced tolerance: Mice were injected with formalin or PBS in the dorsal hindpaw 45-60 min prior to the lick access. Osmotic thirst was induced 10-15 min prior to the lick access. Lick number was recorded for 30 min.

[10] = test system: circulating PGE2; conditions: formalin-induced inflammation
Method: Videos were taken for 1 hr following the injection and analyzed for the time mice spent licking the dorsal hindpaw. Mice with more than 30-sec licking paw time in the first 5 min after injection were used for video analysis. Each mouse was subjected to formalin injection twice: in one hind paw under sated conditions, and another under either sodium depleted or photostimulated conditions. To test the effect of optogenetic stimulation, light stimulation was given at 20 Hz with a 1-sec on 3-sec off paradigm for 60 min.
Mice were anaesthetized with isoflurane. Blood was collected via heart puncture into EDTA-coated tubes (BD Microtainer, 365974) and kept on ice. Plasma was then separated by centrifugation at 1,500 g for 20 min. ELISA assays were performed following the protocols of PGE2 ELISA kit (Cayman Chemical, 514531), serotonin ELISA kit (Eagle Bio, SER39-KO1), and progesterone ELISA kit (Cayman Chemical, 582601).

Compound: C[N+]1([O-])CCN(C2=Nc3cc(Cl)ccc3Nc3ccccc32)CC1 [CNO, clozapine N-oxide]
- dopamine signals in the NAc (dLight1.3b) ([1]; hM3Dq in SFO^Ptger3 neurons, CNO i.p. 1 mg per kg BW vs vehicle, high-salt ingestion): greatly enhanced
- tolerance toward aversive salt (500 mM NaCl) ([2]; hypovolemic state, hM4Di in SFO/OVLT, CNO i.p.): drastically suppressed tolerance
- solute intake (water or high salt) ([2]; osmotic thirst, LT^Ptger3 inhibition): no effect
- tolerance of low salt with quinine or KCl ([2]; sodium depletion, LT^Ptger3-inhibited mice): no longer tolerated
- tolerance of low salt with KCl or quinine ([2]; sodium depletion, only SFO^Ptger3 neurons inhibited (hM4Di in SFO)): blunted tolerance
- tolerance toward aversive salt ([2]; sodium-depleted state, hM4Di in SFO/OVLT, CNO i.p. 10 mg per kg BW): drastically suppressed tolerance

Compound: [Cl-].[Li+] [LiCl]
- calcium response of SFO^Ptger3 neurons to control stimuli (normalized ΔF/F) [3]: no activation

Compound: CCCCC[C@H](O)/C=C/[C@H]1[C@H](O)CC(=O)[C@@H]1C/C=C\CCCC(=O)O [PGE2, Prostaglandin E2]
- calcium dynamics of SFO^Ptger3 neurons (normalized ΔF/F) ([3]; subcutaneous PGE2 1 mg per kg BW vs vehicle): time-locked calcium increases
- Fos immunofluorescence signals in the SFO ([4]; peripheral (subcutaneous) PGE2 3 mg per kg BW, Ptger3-dependent): strong Fos immunofluorescence signals
- Fos signal in the pre-LC ([4]; subcutaneous PGE2, scramble- and Ptger3-shRNA-injected mice): No Fos signal
- PGE2-mediated high-salt tolerance ([5]; Ptger3 KD animals): largely abolished
- PGE2-mediated high-salt tolerance ([5]; Ptger3^Cre/Cre animals): largely abolished
- salt tolerance (500 mM NaCl consumption) ([5]; osmotic thirst, wild-type or Ptger3^Cre/wt, PGE2 s.c. 1 mg per kg BW): increased salt tolerance
- appetite (high-salt consumption) ([5]; sated conditions, PGE2 s.c.): did not induce any appetite
- high-salt consumption during dLight recording ([1]; thirsty mice, subcutaneous PGE2 1 mg per kg BW): increased high-salt consumption
- dopamine release in the NAc (dLight1.3b) ([1]; thirsty mice, subcutaneous PGE2, 500 mM NaCl): enhanced dopamine release

Compound: N=C(N)NC(=O)c1nc(Cl)c(N)nc1N [amiloride]
- sodium consumption (500 mM NaCl licks) induced by pre-LC^Pdyn photostimulation [6]: no longer induced sodium consumption
- SFO^Ptger3-mediated salt tolerance [7]: no effect

Compound: CC(=O)Oc1ccccc1C(=O)O [aspirin]
- salt tolerance (high salt) [8]: significantly reduced salt tolerance

Compound: C=O [formalin]
- high salt tolerance (500 mM NaCl) [9]: partially induced high salt tolerance
- water intake [9]: unaffected
- circulating PGE2 levels [10]: increased the PGE2 levels

Compound: CC(C)Cc1ccc(C(C)C(=O)O)cc1 (stereo not shown) [ibuprofen]
- salt tolerance (high salt) [8]: significantly reduced salt tolerance

Compound: OC[C@@H](O)[C@@H](O)[C@H](O)[C@H](O)CO [mannitol]
- calcium response of SFO^Ptger3 neurons to control stimuli (normalized ΔF/F) [3]: no activation

Compound: ghrelin (GSSFLSPEHQRVQQRKESKKPPAKLQPR; ends and bridges not checked; UniProt Q9UBU3 24-51, looked up) [control stimulus for hunger]
- calcium response of SFO^Ptger3 neurons to control stimuli (normalized ΔF/F) [3]: no activation

— patent US20250152602A1, “MODULATION OF AVERSIVE AND SALT TASTES” (California Institute of Technology, priority 2023, published 2025)
